Test results taken from patent US20230183237A1, “COMPETITIVE AND NONCOMPETITIVE INHIBITORS OF THE MUSCARINIC ACETYLCHOLINE RECEPTOR M5” (Vanderbilt University, priority 2020, published 2023).
Like-named read-outs stand apart in the source and are kept apart here.

Target: T1, hM5 (Homo sapiens, UniProt P08912)
T1 construct: expressed in transfected cells
T1 sequence (P08912 1-532): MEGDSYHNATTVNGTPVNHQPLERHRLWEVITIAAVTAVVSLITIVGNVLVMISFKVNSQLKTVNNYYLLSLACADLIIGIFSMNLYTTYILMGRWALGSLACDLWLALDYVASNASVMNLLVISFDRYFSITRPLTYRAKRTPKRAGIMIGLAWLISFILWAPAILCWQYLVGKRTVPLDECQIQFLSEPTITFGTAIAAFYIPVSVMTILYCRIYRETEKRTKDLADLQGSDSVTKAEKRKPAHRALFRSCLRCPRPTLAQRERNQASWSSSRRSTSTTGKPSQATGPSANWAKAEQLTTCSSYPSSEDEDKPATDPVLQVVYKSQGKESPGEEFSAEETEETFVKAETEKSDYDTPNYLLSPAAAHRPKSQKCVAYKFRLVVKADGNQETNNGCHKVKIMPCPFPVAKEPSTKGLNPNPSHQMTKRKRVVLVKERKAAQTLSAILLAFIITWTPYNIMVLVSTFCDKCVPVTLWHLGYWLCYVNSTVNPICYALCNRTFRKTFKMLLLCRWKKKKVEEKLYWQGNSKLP
Assay: Calcium mobilization concentration-response (IC50 vs EC80 acetylcholine), CHO hM5
Type: cell-based
Conditions: CELL LINE hM5, read-out: IC50
Summary of the method: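 IC50 values derive from percent maximal acetylcholine response after an EC80 ACh addition, measured as kinetic calcium fluorescence (static ratio, max−min). Test compounds were added 140 s before agonist. Cells: stable hM5-CHO in HEPES-buffered HBSS with 2.5 mM probenecid, pH 7.4; ≥3 independent triplicate determinations.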

[1] = calcium mobilization, EC80 acetylcholine addition

IC50 [1] [nM]	IC50 (vs EC80 acetylcholine) [nM]	Compound
> 10000		Cc1c(C2CCN(S(=O)(=O)c3ccc4c(c3)CCO4)CC2)nn2ccnc2c1C [Compound 45, 6-(1-((2,3-dihydrobenzofuran-5-yl)sulfonyl)piperidin-4-yl)-7,8-dimethylimidazo[1,2-b]pyridazine]
> 10000		Cc1sc(C#N)nc1C1CCN(S(=O)(=O)c2cnn(C)c2C)CC1 [Compound 225, 4-(1-((1,5-dimethyl-1H-pyrazol-4-yl)sulfonyl)piperidin-4-yl)-5-methylthiazole-2-carbonitrile]
	3070	Cc1ncc(S(=O)(=O)N2CCC(c3cn4ncnc4cc3F)CC2)o1 [Compound 507, 5-((4-(7-fluoro-[1,2,4]triazolo[1,5-a]pyridin-6-yl)piperidin-1-yl)sulfonyl)-2-methyloxazole]
> 10000		Cc1cc2ncnn2cc1C1CCN(S(=O)(=O)c2c(C)nn(C)c2C(F)(F)F)C(C)C1 (centres unmarked) [Compound 362, 6-(1-((1,3-dimethyl-5-(trifluoromethyl)-1H-pyrazol-4-yl)sulfonyl)-2-methylpiperidin-4-yl)-7-methyl-[1,2,4]triazolo[1,5-a]pyridine]
26		CCc1cc2ncnn2cc1C1CCN(S(=O)(=O)c2cnn3c2CCC3)CC1 [Compound 299, 6-(1-((5,6-dihydro-4H-pyrrolo[1,2-b]pyrazol-3-yl)sulfonyl)piperidin-4-yl)-7-ethyl-[1,2,4]triazolo[1,5-a]pyridine]
> 10000		Cc1nc(C)c(S(=O)(=O)N2CCC(c3nn4ncnc4cc3C)CC2)s1 [Compound 215, 2,4-dimethyl-5-((4-(7-methyl-[1,2,4]triazolo[1,5-b]pyridazin-6-yl)piperidin-1-yl)sulfonyl)thiazole]
> 10000		O=S(=O)(c1ccc2c(c1)CCO2)N1CCC(c2ccncc2)CC1 [Compound 2, 4-(1-((2,3-dihydrobenzofuran-5-yl)sulfonyl)piperidin-4-yl)pyridine]
> 10000		Cc1cc(C#N)ncc1C1=CCN(S(=O)(=O)c2cnn(C)c2C)CC1 [Compound 239, 1′-((1,5-dimethyl-1H-pyrazol-4-yl)sulfonyl)-4-methyl-1′,2′,3′,6′-tetrahydro-[3,4′-bipyridine]-6-carbonitrile]
> 10000		Cc1cc2ncnn2nc1C1CCN(S(=O)(=O)c2cc3c(cc2F)OCC3)CC1 [Compound 181, 6-(1-((6-fluoro-2,3-dihydrobenzofuran-5-yl)sulfonyl)piperidin-4-yl)-7-methyl-[1,2,4]triazolo[1,5-b]pyridazine]
195		Cc1cc2ncnn2cc1C1CCN(S(=O)(=O)c2cc3c(cc2F)OCC3C)CC1 (centres unmarked) [Compound 103, 6-(1-((6-fluoro-3-methyl-2,3-dihydrobenzofuran-5-yl)sulfonyl)piperidin-4-yl)-7-methyl-[1,2,4]triazolo[5-a]pyridine]
> 10000		Cc1c(S(=O)(=O)N2CC=C(c3cnc4ncnn4c3C)CC2)cnn1C [Compound 243, 6-(1-((1,5-dimethyl-1H-pyrazol-4-yl)sulfonyl)-1,2,3,6-tetrahydropyridin-4-yl)-7-methyl-[1,2,4]triazolo[1,5-a]pyrimidine]
> 10000		O=S(=O)(c1ccc2ncccc2c1)N1CCC(c2cc3[nH]ccc3cn2)CC1 [Compound 31, 6-((4-(1H-pyrrolo[3,2-c]pyridin-6-yl)piperidin-1-yl)sulfonyl)quinoline]
12		O=S(=O)(c1cnn2c1CCC2)N1CCC(c2cn3ncnc3cc2Cl)CC1 [Compound 293, 7-chloro-6-(1-((5,6-dihydro-4H-pyrrolo[1,2-b]pyrazol-3-yl)sulfonyl)piperidin-4-yl)-[1,2,4]triazolo[1,5-a]pyridine]
	398	Cc1cnccc1C1CCN(S(=O)(=O)c2cnn(C)c2Cl)CC1 [Compound 429, 4-(1-((5-chloro-1-methyl-1H-pyrazol-4-yl)sulfonyl)piperidin-4-yl)-3-methylpyridine]
	174	[2H]C1([2H])CC(c2cn3ncnc3c(F)c2C)CC([2H])([2H])N1S(=O)(=O)c1cnc(C)o1 [Compound 569, 5-((4-(8-fluoro-7-methyl-[1,2,4]triazolo[1,5-a]pyridin-6-yl)piperidin-1-yl-2,2,6,6-d4)sulfonyl)-2-methyloxazole]
	4960	[2H]C([2H])([2H])OCc1c(S(=O)(=O)N2CCC(c3cn4ncnc4cc3C)CC2)cnn1C [Compound 440, 6-(1-((5-((methoxy-d3)methyl)-1-methyl-1H-pyrazol-4-yl)sulfonyl)piperidin-4-yl)-7-methyl-[1,2,4]triazolo[1,5-a]pyridine]
4200		Cc1cc2nccn2nc1C1CCN(S(=O)(=O)c2ccc3ncsc3c2)CC1 [Compound 38, 6-((4-(7-methylimidazo[1,2-b]pyridazin-6-yl)piperidin-1-yl)sulfonyl)benzo[d]thiazole]
> 10000		Cc1sc(C(N)=O)nc1C1CCN(S(=O)(=O)c2ccc3c(c2)CCO3)CC1 [Compound 211, 4-(1-((2,3-dihydrobenzofuran-5-yl)sulfonyl)piperidin-4-yl)-5-methylthiazole-2-carboxamide]
1390		Cc1ncc(S(=O)(=O)N2CCC(c3ccc4c(c3)OCO4)CC2)n1C [Compound 358, 4-(benzo[d][1,3]dioxol-5-yl)-1-((1,2-dimethyl-1H-imidazol-5-yl)sulfonyl)piperidine]
86		[2H]C1([2H])Oc2cc(C)c(C3CCN(S(=O)(=O)c4cnn5c4OCCC5)CC3)cc2OC1([2H])[2H] [Compound 393, 3-((4-(7-methyl-2,3-dihydrobenzo[b][1,4]dioxin-6-yl-2,2,3,3-d4)piperidin-1-yl)sulfonyl)-6,7-dihydro-5H-pyrazolo[5,1-b][1,3]oxazine]
> 10000		Cc1cc(C#N)cnc1C1=CCN(S(=O)(=O)c2ccc3c(c2)CCO3)CC1 [Compound 210, 1′-((2,3-dihydrobenzofuran-5-yl)sulfonyl)-3-methyl-1′,2′,3′,6′-tetrahydro-[2,4′-bipyridine]-5-carbonitrile]
	98	[2H]C1([2H])CC(c2cn3ncnc3cc2Cl)CC([2H])([2H])N1S(=O)(=O)c1nncn1C [Compound 580, 7-chloro-6-(1-((4-methyl-4H-1,2,4-triazol-3-yl)sulfonyl)piperidin-4-yl-2,2,6,6-d4)-[1,2,4]triazolo[1,5-a]pyridine]
	> 10000	Cc1nc2n(c1C1CCN(S(=O)(=O)c3cnn(C)c3CC#N)CC1)CCCC2 [Compound 466, 2-(1-methyl-4-((4-(2-methyl-5,6,7,8-tetrahydroimidazo[1,2-a]pyridin-3-yl)piperidin-1-yl)sulfonyl)-1H-pyrazol-5-yl)acetonitrile]
62		Cc1cc2ncnn2cc1C1CCN(S(=O)(=O)c2cnn(C(F)F)c2C)CC1 [Compound 151, 6-(1-((1-(difluoromethyl)-5-methyl-1H-pyrazol-4-yl)sulfonyl)piperidin-4-yl)-7-methyl-[1,2,4]triazolo[1,5-a]pyridine]
	28	Cc1nnc(S(=O)(=O)N2CCC(c3cn4ncnc4cc3Cl)CC2)s1 [Compound 540, 2-((4-(7-Chloro[1,2,4]triazolo[1,5-a]pyridin-6-yl)piperidin-1-yl)sulfonyl)-5-methyl-1,3,4-thiadiazole]
> 10000		CN1CCOc2ccc(S(=O)(=O)N3CC=C(c4cc5c(cc4Cl)OCO5)CC3)cc21 [Compound 353, 6-((4-(6-chlorobenzo[d][1,3]dioxol-5-yl)-3,6-dihydropyridin-1(2H)-yl)sulfonyl)-4-methyl-3,4-dihydro-2H-benzo[b][1,4]oxazine]
